From patent US20240261417A1, “SOS1 DEGRADING AGENT AND PREPARATION METHOD THEREFOR AND APPLICATION THEREOF” (SHANGHAI LEADINGTAC PHARMACEUTICAL CO. LTD., priority 2021, published 2024)

tested on: KRAS G12C mutant human non-small cell lung cancer cells NCI-H358; test: 3D cell proliferation inhibition assay, NCI-H358; type: cell-based; details: Homo sapiens, NCI-H358, 168 h, 7 days, CTG
Protocol: Inhibition of 3D cell proliferation by the compounds was investigated on KRAS G12C mutant human non-small cell lung cancer cells NCI-H358 (ATCC or Stem Cell Bank, Chinese Academy of Sciences), KRAS G12D mutant human metastatic pancreatic adenocarcinoma cells AsPC-1 (ATCC), KRAS G12V mutant human lung adenocarcinoma cells NCI-H441 (ATCC), and KRAS G13D mutant human colorectal adenocarcinoma epithelial cells DLD-1 (ATCC). The specific procedures were as follows:
200 nL of compound solution diluted in a gradient was added to corresponding microwells of a 384-well low-adsorption microwell plate (Corning, 3657) using an Echo sonic pipetting system (Labcyte, Echo 550), so that the final concentration of the test compound in the reaction system was in a range of 20000 nM-0.008 nM. Then 40 μL of cells at a certain density were added to the corresponding microplate. In addition to test wells for the test compounds, both a DMSO control well and a medium control well were set, with the DMSO control well containing DMSO and cells and the medium well containing only medium. After sample loading, the plate cover was applied, and the 384-well low-adsorption microplate was incubated in an incubator at 37° C. with 5% carbon dioxide for 7 days. After 7 days, the microplate was taken out, and 40 μL of CTG reagent (Promega, G9683) was added to each well. The plate was incubated at room temperature for 30 min and read on a microplate reader EnVision using the chemiluminescence program. The inhibition rates of the compounds at each concentration were calculated by the formula for the percentage inhibition of cell proliferation: inhibition rate %=(mean value of DMSO control group−single concentration reading value of compound)/(mean value of DMSO control group−mean value of medium control group)×100, and then nonlinear curve fitting was performed by GraphPad Prism 8 in the logarithmic concentration-inhibition rate to obtain the IC50 values of the compounds.

SMILES	IC50
COc1cc2nc(C)nc(N[C@H](C)c3cc(N)cc(C(F)(F)F)c3)c2cc1[C@H]1CC[C@H](C(=O)N2CCN(CCC3CCC4(CC3)CCN(C(=O)c3ccc(Cl)c(N5CCC(=O)NC5=O)c3)CC4)CC2)CC1 [Example 1, 1-(5-(9-(2-(4-((1R,4R)-4-(4-(((R)-1-(3-amino-5-(trifluoromethyl)phenyl)ethyl)amino)-7-methoxy-2-methylquinazolin-6-yl)cyclohexane-1-carbonyl)piperazin-1-yl)ethyl)-3-azaspiro[5.5]undecane-3-carbonyl)-2-chlorophenyl)dihydropyrimidine-2,4(1H,3H)-dione]	≤ 15 nM
COc1cc2nc(C)nc(N[C@H](C)c3cc(N)cc(C(F)(F)F)c3)c2cc1[C@H]1CC[C@H](C(=O)N2CCN(CC3CCC4(CC3)CCN(C(=O)c3ccc(Cl)c(N5CCC(=O)NC5=O)c3)CC4)CC2)CC1 [Example 2, 1-(5-(9-((4-((1R,4R)-4-(4-(((R)-1-(3-amino-5-(trifluoromethyl)phenyl)ethyl)amino)-7-methoxy-2-methylquinazolin-6-yl)cyclohexane-1-carbonyl)piperazin-1-yl)methyl)-3-azaspiro[5.5]undecane-3-carbonyl)-2-chlorophenyl)dihydropyrimidine-2,4(1H,3H)-dione]	≤ 15 nM
COc1cc2nc(C)nc(N[C@H](C)c3cccc4c3CCS4(=O)=O)c2cc1[C@H]1CC[C@H](C(=O)N2CCN(CC3CCC4(CC3)CCN(C(=O)c3ccc(Cl)c(N5CCC(=O)NC5=O)c3)CC4)CC2)CC1 [Example 10, 1-(2-chloro-5-(9-((4-((1R,4R)-4-(4-(((R)-1-(1,1-dioxo-2,3-dihydrobenzo[b]thiophen-4-yl)ethyl)amino)-7-methoxy-2-methylquinazolin-6-yl)cyclohexane-1-carbonyl)piperazin-1-yl)methyl)-3-azaspiro[5.5]undecane-3-carbonyl)phenyl)dihydropyrimidine-2,4(1H,3H)-dione]	≤ 15 nM
COc1cc2nc(C)nc(N[C@H](C)c3cc(N)cc(C(F)(F)F)c3)c2cc1[C@H]1CC[C@H](C(=O)N2CCC(CCOCC3CCN(C(=O)c4ccc(Cl)c(N5CCC(=O)NC5=O)c4)CC3)CC2)CC1 [Example 19, 1-(5-(4-((2-(1-((1R,4R)-4-(4-(((R)-1-(3-amino-5-(trifluoromethyl)phenyl)ethyl)amino)-7-methoxy-2-methylquinazolin-6-yl)cyclohexane-1-carbonyl)piperidin-4-yl)ethoxy)methyl)piperidine-1-carbonyl)-2-chlorophenyl)dihydropyrimidine-2,4(1H,3H)-dione]	≤ 15 nM
COc1cc2nc(C)nc(N[C@H](C)c3cc(N)cc(C(F)(F)F)c3)c2cc1[C@H]1CC[C@H](C(=O)N2CCN(CCOCC3CCN(C(=O)c4ccc(Cl)c(N5CCC(=O)NC5=O)c4)CC3)CC2)CC1 [Example 33, 1-(5-(4-((2-(4-((1R,4R)-4-(4-(((R)-1-(3-amino-5-(trifluoromethyl)phenyl)ethyl)amino)-7-methoxy-2-methylquinazolin-6-yl)cyclohexane-1-carbonyl)piperazin-1-yl)ethoxy)methyl)piperidine-1-carbonyl)-2-chlorophenyl)dihydropyrimidine-2,4(1H,3H)-dione]	≤ 15 nM
CNCc1ccccc1-c1csc([C@@H](C)Nc2nc(C)nc3cc(OC)c([C@H]4CC[C@H](C(=O)N5CCN(CC6CCC7(CC6)CCN(C(=O)c6ccc(OC)c(N8CCC(=O)NC8=O)c6)CC7)CC5)CC4)cc23)c1 [Example 73, 1-(2-methoxy-5-(9-((4-((1R,4R)-4-(7-methoxy-2-methyl-4-(((R)-1-(4-(2-((methylamino)methyl)phenyl)thien-2-yl)ethyl)amino)quinazolin-6-yl)cyclohexane-1-carbonyl)piperazin-1-yl)methyl)-3-azaspiro[5.5]undecane-3-carbonyl)phenyl)dihydropyrimidine-2,4(1H,3H)-dione]	≤ 15 nM
